Measurements as given in patent US20230183234A1, “IAP ANTAGONIST COMPOUNDS AND INTERMEDIATES AND METHODS FOR SYNTHESIZING THE SAME” (Otsuka Pharmaceutical Co., Ltd., priority 2020, published 2023).

Assay: Storage stability: level of aldehyde impurity of formula (XXV), HPLC peak at RRT 1.3
Assay type: physicochemical
Conditions: stored at 2-8° C.
Description: Based on experimental data, there is a correlation between the palladium content in the final end-product and drug substance of formula (XXIII) and the oxidative degradation of an aldehyde impurity. […] The degradation is manifested as an aldehyde impurity peak of formula (XXV) appearing at a relative retention time (RRT) of 1.3.
This impurity peak is found to be no more than 0.2% a/a when stored at 2-8° C., but higher levels are observed at elevated temperatures. The experimental results are depicted in FIGS. 6-7 and Tables 1, 4 and 5 for drug substance lots and corresponding formulations outlined in Tables 1-3.
The stability data and effect of palladium content on aldehyde impurity represented by the area percent of RRT 1.3 at a storage condition of 25° C. and 60% RH is provided in Table 4 and FIG. 6.
The effect of temperature on stability and the level of aldehyde impurity represented by the area percent of RRT 1.3 is provided in Table 5 and FIG. 7.

Compound: C[C@@H]1CN(CC(=O)N2CC(C)(C)c3nc(CO)c(Cc4ccc(F)cc4)cc32)[C@@H](CN2CCOC[C@H]2C)CN1.C[C@H](O)C(=O)O [formula (XXIII)]
- impurity peak level at RRT 1.3 (aldehyde impurity of formula (XXV)): no more than 0.2 % a/a
